Data published in the supplement of paper PMC10307832.

What follows are cell lines tested with CC1=NN=C(O1)C2=NN=C(C=C2)N3CCC(CC3)OC4=C(C=CC(=C4)F)Cl (assay: relative viability (nuclei count vs DMSO), 5 days (fraction); higher = more cells survive). Conditions: 0.253 µM.
How it was run: (§1)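 Viability was defined as treated-well nuclei divided by vehicle-well nuclei, with the median taken over replicate plates. Cells from lung cancer lines sat overnight at 37 °C in 1536-well plates, received five √10-spaced library-drug doses by pinning on vehicle-anchored plates, and grew 5 days without medium change before one-step fixation, permeabilisation and Hoechst staining, 4× imaging and MetaXpress nuclear counts. Only plates with control CV under 25% and at least one doubling were kept.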

In order of rising relative viability:
1. ABC-1  0.374
2. LC-2-ad  0.407
3. NCI-H1944  0.429
4. HCC-15  0.463
5. NCI-H3122  0.47
6. EKVX  0.475
7. NCI-H2009  0.613
8. NCI-H358  0.628
9. NCI-H1666  0.707
10. NCI-H1437  0.741
11. NCI-H1993  0.772
12. NCI-H1651  0.819
13. PC-3 [JPC-3]  0.85
14. NCI-H1793  0.877
15. PC-14  0.896
16. NCI-H2085  0.901
17. NCI-H2228  0.904
18. NCI-H520  0.91
19. NCI-H322M  0.929
20. CAL-12T  0.935
21. NCI-H1734  0.954
22. NCI-H1299  0.961
23. NCI-H1563  0.986
24. EPLC-272H  0.987

Same assay, conditions: 0.8 µM

In order of falling relative viability:
1. NCI-H1563  0.954
2. NCI-H2228  0.921
3. NCI-H1299  0.9
4. NCI-H322M  0.881
5. LOU-NH91  0.866
6. NCI-H1993  0.864
7. CAL-12T  0.859
8. NCI-H1666  0.844
9. NCI-H520  0.813
10. PC-3 [JPC-3]  0.805
11. NCI-H1651  0.795
12. PC-14  0.778
13. NCI-H1793  0.776
14. NCI-H1650  0.756
15. NCI-H2085  0.736
16. NCI-H1734  0.729
17. EPLC-272H  0.716
18. NCI-H1437  0.642
19. NCI-H358  0.563
20. NCI-H2009  0.552
21. NCI-H1944  0.487
22. HCC-15  0.449
23. NCI-H3122  0.444
24. LC-2-ad  0.431
25. ABC-1  0.421
26. EKVX  0.405

Same assay, conditions: 2.53 µM

In order of falling relative viability:
1. NCI-H520  1.16
2. NCI-H322M  1.02
3. NCI-H1793  1.02
4. NCI-H1563  0.995
5. NCI-H2228  0.979
6. NCI-H1734  0.966
7. NCI-H1993  0.954
8. NCI-H2085  0.908
9. LOU-NH91  0.908
10. PC-3 [JPC-3]  0.896
11. NCI-H1299  0.892
12. EPLC-272H  0.887
13. NCI-H1666  0.835
14. CAL-12T  0.821
15. PC-14  0.817
16. NCI-H1651  0.784
17. NCI-H1650  0.749
18. NCI-H1437  0.707
19. NCI-H2009  0.61
20. NCI-H358  0.589
21. NCI-H1944  0.515
22. NCI-H3122  0.478
23. ABC-1  0.473
24. HCC-15  0.456
25. LC-2-ad  0.44
26. EKVX  0.432

Same assay, conditions: 8 µM

In order of rising relative viability:
1. LC-2-ad  0.409
2. NCI-H3122  0.432
3. HCC-15  0.464
4. NCI-H1944  0.466
5. ABC-1  0.472
6. EKVX  0.479
7. NCI-H358  0.49
8. NCI-H2009  0.539
9. NCI-H1437  0.632
10. NCI-H1651  0.682
11. NCI-H1650  0.722
12. CAL-12T  0.742
13. NCI-H1793  0.755
14. NCI-H1666  0.782
15. NCI-H2085  0.795
16. NCI-H322M  0.819
17. EPLC-272H  0.828
18. NCI-H1993  0.833
19. NCI-H2228  0.834
20. PC-14  0.846
21. NCI-H1299  0.852
22. NCI-H1734  0.859
23. PC-3 [JPC-3]  0.926
24. LOU-NH91  0.957
25. NCI-H520  0.968
26. NCI-H1563  0.993

What follows are cell lines tested with CC(C)C[C@@H](C(=O)N[C@H](C(=O)OC1CCCC1)c1ccccc1)[C@H](O)C(=O)NO [Tosedostat] in the same assay as above. Conditions: 0.02 µM.
How it was run: as §1

In order of rising relative viability:
1. NCI-H1793  0.815
2. NCI-H1650  0.895
3. NCI-H322M  0.898
4. NCI-H2085  0.918
5. EKVX  0.973
6. NCI-H1437  1
7. NCI-H1993  1
8. NCI-H1666  1
9. NCI-H1944  1.01
10. NCI-H520  1.02
11. NCI-H1563  1.03
12. LOU-NH91  1.04
13. HCC-15  1.05
14. EPLC-272H  1.06
15. NCI-H3122  1.06
16. NCI-H1651  1.06
17. PC-3 [JPC-3]  1.08
18. NCI-H1299  1.09
19. NCI-H1734  1.1
20. NCI-H358  1.11
21. LC-2-ad  1.13
22. PC-14  1.14
23. CAL-12T  1.16
24. NCI-H2009  1.16
25. NCI-H2228  1.22
26. ABC-1  1.24

Same assay, conditions: 0.06325 µM

In order of falling relative viability:
1. PC-3 [JPC-3]  1.13
2. NCI-H2228  1.1
3. NCI-H1563  1.07
4. LC-2-ad  1.02
5. NCI-H2085  1.02
6. NCI-H3122  1.01
7. LOU-NH91  1.01
8. NCI-H1299  0.995
9. NCI-H1437  0.987
10. EPLC-272H  0.984
11. NCI-H1651  0.984
12. NCI-H520  0.977
13. EKVX  0.972
14. NCI-H322M  0.964
15. NCI-H1993  0.958
16. PC-14  0.951
17. CAL-12T  0.948
18. NCI-H2009  0.94
19. NCI-H1666  0.933
20. NCI-H1944  0.921
21. NCI-H1734  0.903
22. HCC-15  0.89
23. NCI-H1793  0.88
24. ABC-1  0.869
25. NCI-H358  0.866
26. NCI-H1650  0.85

Same assay, conditions: 0.2 µM

In order of rising relative viability:
1. EPLC-272H  0.763
2. NCI-H358  0.782
3. NCI-H1993  0.847
4. NCI-H322M  0.877
5. NCI-H2228  0.881
6. ABC-1  0.911
7. NCI-H1793  0.92
8. NCI-H1944  0.928
9. NCI-H520  0.937
10. LOU-NH91  0.937
11. NCI-H1650  0.94
12. EKVX  0.944
13. NCI-H1734  0.959
14. PC-14  0.962
15. LC-2-ad  0.963
16. NCI-H1651  0.973
17. NCI-H2085  0.983
18. NCI-H1299  0.985
19. NCI-H2009  0.988
20. HCC-15  0.996
21. NCI-H1666  1.02
22. CAL-12T  1.03
23. NCI-H3122  1.03
24. PC-3 [JPC-3]  1.04
25. NCI-H1437  1.05
26. NCI-H1563  1.05

Same assay, conditions: 0.6325 µM

In order of falling relative viability:
1. NCI-H520  1.15
2. NCI-H1563  1.13
3. NCI-H1666  1.08
4. NCI-H3122  1.02
5. NCI-H2085  1.02
6. NCI-H1437  0.97
7. NCI-H1299  0.968
8. PC-3 [JPC-3]  0.933
9. PC-14  0.928
10. ABC-1  0.928
11. NCI-H2009  0.926
12. NCI-H1651  0.921
13. LOU-NH91  0.919
14. NCI-H1793  0.913
15. NCI-H1650  0.911
16. HCC-15  0.901
17. CAL-12T  0.892
18. NCI-H1944  0.889
19. LC-2-ad  0.871
20. NCI-H1734  0.866
21. EKVX  0.859
22. NCI-H2228  0.837
23. NCI-H322M  0.762
24. NCI-H1993  0.631
25. EPLC-272H  0.593
26. NCI-H358  0.452

Same assay, conditions: 2 µM

In order of rising relative viability:
1. NCI-H358  0.425
2. EPLC-272H  0.428
3. PC-3 [JPC-3]  0.641
4. NCI-H2228  0.686
5. NCI-H1993  0.703
6. ABC-1  0.765
7. CAL-12T  0.784
8. NCI-H1793  0.79
9. PC-14  0.806
10. LC-2-ad  0.818
11. NCI-H1734  0.822
12. NCI-H322M  0.834
13. HCC-15  0.848
14. NCI-H1944  0.853
15. NCI-H2009  0.866
16. NCI-H1437  0.889
17. NCI-H1651  0.899
18. EKVX  0.911
19. NCI-H1299  0.939
20. NCI-H1650  0.98
21. NCI-H2085  0.99
22. NCI-H1666  0.999
23. NCI-H3122  1.02
24. NCI-H1563  1.08
25. NCI-H520  1.14
